This is an account of results in ChEMBL document CHEMBL3272135, “Quantitative relationships between steroid structure and binding to putative progesterone receptors” (J Med Chem, 1977).

SMILES strings stand for the structures.

Assay [1] concerns the target T1, Progesterone receptor (Oryctolagus cuniculus) (UniProt P06186).
T1 sequence (whole entry): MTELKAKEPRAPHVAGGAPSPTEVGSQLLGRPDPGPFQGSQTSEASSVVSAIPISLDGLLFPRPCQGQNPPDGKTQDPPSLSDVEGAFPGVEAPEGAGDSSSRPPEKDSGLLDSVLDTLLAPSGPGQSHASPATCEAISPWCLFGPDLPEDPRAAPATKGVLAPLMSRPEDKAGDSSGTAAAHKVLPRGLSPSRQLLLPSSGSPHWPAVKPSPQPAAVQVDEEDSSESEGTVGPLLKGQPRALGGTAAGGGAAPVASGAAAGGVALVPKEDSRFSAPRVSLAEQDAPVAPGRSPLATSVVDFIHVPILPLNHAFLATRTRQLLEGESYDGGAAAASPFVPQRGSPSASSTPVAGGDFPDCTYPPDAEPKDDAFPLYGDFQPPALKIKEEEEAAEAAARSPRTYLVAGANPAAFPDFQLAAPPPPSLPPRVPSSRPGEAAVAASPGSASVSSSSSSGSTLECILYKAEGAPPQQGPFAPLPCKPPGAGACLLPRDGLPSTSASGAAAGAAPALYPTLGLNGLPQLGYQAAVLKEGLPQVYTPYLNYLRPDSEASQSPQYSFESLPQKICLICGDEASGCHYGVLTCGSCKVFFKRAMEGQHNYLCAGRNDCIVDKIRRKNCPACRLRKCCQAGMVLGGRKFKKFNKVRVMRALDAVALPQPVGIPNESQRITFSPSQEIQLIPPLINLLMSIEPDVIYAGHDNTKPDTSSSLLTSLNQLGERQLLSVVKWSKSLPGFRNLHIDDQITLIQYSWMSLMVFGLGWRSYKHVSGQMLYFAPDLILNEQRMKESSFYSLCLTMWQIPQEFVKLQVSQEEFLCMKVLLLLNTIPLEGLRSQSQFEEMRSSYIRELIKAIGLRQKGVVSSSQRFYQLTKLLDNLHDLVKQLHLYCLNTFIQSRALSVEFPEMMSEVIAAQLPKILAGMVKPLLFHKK
As to the kind of experiment: Relative binding affinity to rabbit progesterone receptor.

Assay [2] concerns the target T2, Progesterone receptor (Ovis aries) (UniProt Q28590).
T2 sequence (whole entry): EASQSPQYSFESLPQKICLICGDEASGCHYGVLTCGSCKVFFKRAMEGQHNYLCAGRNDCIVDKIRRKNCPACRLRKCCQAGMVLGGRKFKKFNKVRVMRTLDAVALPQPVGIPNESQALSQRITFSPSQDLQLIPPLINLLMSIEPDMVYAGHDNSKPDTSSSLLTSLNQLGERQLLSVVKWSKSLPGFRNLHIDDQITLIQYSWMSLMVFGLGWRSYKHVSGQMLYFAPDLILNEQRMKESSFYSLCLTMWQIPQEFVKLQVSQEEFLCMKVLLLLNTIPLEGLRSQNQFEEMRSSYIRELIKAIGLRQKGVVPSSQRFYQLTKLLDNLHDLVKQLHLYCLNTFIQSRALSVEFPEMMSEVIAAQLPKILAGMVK
As to the kind of experiment: Relative binding affinity to sheep progesterone receptor.

The species named for a further assay is Cavia porcellus. As to the kind of experiment: Relative binding affinity to guinea pig progesterone receptor.
Assay [3] addresses T3, Progesterone receptor (Homo sapiens) (UniProt P06401).
T3 sequence (whole entry): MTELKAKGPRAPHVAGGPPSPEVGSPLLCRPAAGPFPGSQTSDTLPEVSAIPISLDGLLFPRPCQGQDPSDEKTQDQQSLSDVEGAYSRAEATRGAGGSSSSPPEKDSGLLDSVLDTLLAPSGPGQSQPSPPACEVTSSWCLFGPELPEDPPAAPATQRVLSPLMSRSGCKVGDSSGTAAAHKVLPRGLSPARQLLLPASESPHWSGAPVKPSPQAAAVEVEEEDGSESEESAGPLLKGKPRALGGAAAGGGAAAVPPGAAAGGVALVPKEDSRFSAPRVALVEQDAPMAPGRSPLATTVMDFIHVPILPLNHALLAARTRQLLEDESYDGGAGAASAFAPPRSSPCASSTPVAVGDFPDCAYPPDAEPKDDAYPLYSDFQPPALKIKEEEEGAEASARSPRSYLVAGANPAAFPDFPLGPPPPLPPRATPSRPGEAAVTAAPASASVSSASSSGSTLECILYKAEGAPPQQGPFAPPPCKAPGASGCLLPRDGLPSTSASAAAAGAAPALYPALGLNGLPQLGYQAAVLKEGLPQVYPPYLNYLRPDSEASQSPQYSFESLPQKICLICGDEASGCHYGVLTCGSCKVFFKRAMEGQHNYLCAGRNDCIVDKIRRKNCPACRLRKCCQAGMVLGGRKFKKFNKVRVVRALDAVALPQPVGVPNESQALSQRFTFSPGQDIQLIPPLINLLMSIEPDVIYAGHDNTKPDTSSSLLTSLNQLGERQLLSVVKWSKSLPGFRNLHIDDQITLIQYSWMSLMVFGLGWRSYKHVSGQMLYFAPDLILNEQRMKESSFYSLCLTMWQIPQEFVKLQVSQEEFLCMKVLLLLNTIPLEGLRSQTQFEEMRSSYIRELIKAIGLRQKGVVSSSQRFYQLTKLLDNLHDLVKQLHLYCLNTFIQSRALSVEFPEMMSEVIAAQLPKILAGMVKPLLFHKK

The compound `CC(=O)[C@@]1(C)CC[C@H]2[C@@H]3CCC4=CC(=O)CC[C@@H]4[C@H]3CC[C@@]21C` showed a log(RBA) in assay [1] of 2.7.
Regarding `C#C[C@]1(O)CC[C@H]2[C@@H]3CCC4=CC(=O)CC[C@@H]4[C@H]3CC[C@@]21CC`, the log(RBA) in assay [2] is 2; in assay [1] it was 2.62; in the assay listed under Cavia porcellus, 1.43; in assay [3], 2.22.
Take `C#C[C@]1(O)CC[C@H]2[C@@H]3CCC4=C[C@@H](O)CC[C@@H]4[C@H]3CC[C@@]21C`: the log(RBA) in assay [2] is 1; in assay [1], 1.3; in the assay listed under Cavia porcellus it was -0.22; in assay [3] it was 1.4.
In assay [1], `CCC(=O)[C@@]1(C)CC[C@H]2[C@@H]3CCC4=CC(=O)CCC4=C3CC[C@@]21C` had a log(RBA) of 2.48.
Consider `CC(=O)O[C@]1(C(C)=O)CC[C@H]2[C@@H]3C=C(C)C4=CC(=O)CC[C@]4(C)[C@H]3CC[C@@]21C`, for which the log(RBA) is 1.51 in assay [2], 2 in assay [1], -0.3 in the assay filed under Cavia porcellus and 1.94 in assay [3].
`CC(=O)[C@@]1(C)CC[C@H]2[C@@H]3CCC4=CC(=O)CCC4=C3CC[C@@]21C`: the log(RBA) in assay [1] came out at 2.3.
Consider `C#C[C@]1(O)CC[C@H]2[C@@H]3CC[C@@H]4C[C@@H](O)CC[C@@H]4[C@H]3CC[C@@]21C`, for which the log(RBA) was -0.7 in assay [2], -1 in assay [1], -1.09 in the assay filed under Cavia porcellus and -0.52 in assay [3].
With `CC[C@@H]1C[C@H]2[C@@H]3CCC4=CC(=O)CC[C@@H]4[C@H]3CC[C@]2(C)[C@H]1C(=O)CO`, the log(RBA) in assay [2] was 1.98; in assay [1] it was 2.44; in the assay listed under Cavia porcellus it was 1.4; in assay [3] it was 2.16.
Regarding `C[C@]12CC[C@H]3[C@@H](CCC4=CC(=O)CC[C@@]43C)[C@@H]1CC[C@@H]2C(=O)CO`, the log(RBA) in assay [2] amounted to 1.4; in assay [1], 1.4; in the assay listed under Cavia porcellus, 1.15; in assay [3], 1.23.
For `CC(=O)[C@H]1CC[C@H]2[C@@H]3[C@H](C)CC4=CC(=O)CC[C@]4(C)[C@H]3CC[C@]12C`, the log(RBA) was 1.32 in assay [2], 1.61 in assay [1], 1.67 in the assay listed under Cavia porcellus and 1.43 in assay [3].
In the case of `CC(=O)[C@H]1CC[C@H]2[C@@H]3CCC4=CC(=O)C=C[C@]4(C)[C@H]3CC[C@]12C`, the log(RBA) was 1.2 in assay [2], 1.3 in assay [1], 1.64 in the assay listed under Cavia porcellus and 1.48 in assay [3].
Regarding `CC(=O)[C@@]1(O)CC[C@H]2[C@@H]3CCC4=CC(=O)CC[C@]4(C)[C@H]3CC[C@@]21C`, the log(RBA) was -0.3 in assay [2], -0.097 in assay [1], -0.52 in the assay listed under Cavia porcellus and -0.15 in assay [3].
In assay [1], `CC(=O)[C@H]1CC[C@H]2[C@@H]3CCC4=CC(=O)CCC4=C3C=C[C@]12C` registered a log(RBA) of 1.3.
`C=CC[C@]1(O)CC[C@H]2[C@@H]3CCC4=CCCC[C@@H]4[C@H]3CC[C@@]21C`: the log(RBA) in assay [2] is 0.6; in assay [1] it was 1.08; in the assay filed under Cavia porcellus, -0.7; in assay [3], 0.48.
Regarding `CC(=O)[C@@]1(C)CC[C@H]2[C@@H]3CCC4=CC(=O)CCC4=C3C=C[C@@]21C`, in assay [1], the log(RBA) was 1.74.
Take `C[C@]12CCC(=O)C[C@@H]1CC[C@@H]1[C@@H]2CC[C@]2(C)[C@@H](O)CC[C@@H]12`: the log(RBA) was 0 in assay [2] and 0.3 in assay [3].
In the case of `CCCCCC(=O)O[C@]1(C(C)=O)CC[C@H]2[C@@H]3CCC4=CC(=O)CC[C@]4(C)[C@H]3CC[C@@]21C`, the log(RBA) in assay [1] and in assay [3] was 1.88 in each case.
`C#C[C@]1(O)CC[C@H]2[C@@H]3CCC4=CC(=O)CCC4=C3C=C[C@@]21CC` yielded a log(RBA) in assay [1] of 1.3.
On to `C#C[C@]1(O)CC[C@H]2[C@@H]3CC[C@H]4CC(=O)CC[C@@H]4[C@H]3CC[C@@]21C`, for which the log(RBA) in assay [2] was 1; in assay [1] it was 1.23; in the assay filed under Cavia porcellus it was 0.3; in assay [3], 1.23.
Regarding `C#C[C@]1(O)CC[C@H]2[C@@H]3CC[C@H]4C[C@@H](O)CC[C@@H]4[C@H]3CC[C@@]21C`, the log(RBA) in assay [2] is -1.3; in assay [1], -0.52; in the assay filed under Cavia porcellus, -2; in assay [3], -0.7.
The compound `CC(=O)[C@H]1CC[C@H]2[C@@H]3CCC4=CC(=O)CCC4=C3CC[C@]12C` yielded a log(RBA) in assay [1] of 2.
With `C[C@@H](O)[C@H]1CC[C@H]2[C@@H]3CCC4=CC(=O)CC[C@]4(C)[C@H]3CC[C@]12C`, the log(RBA) in assay [2] was 0; in assay [1], 1.01; in the assay filed under Cavia porcellus it was 0; in assay [3], 0.3.
Consider `C[C@H](O)[C@H]1CC[C@H]2[C@@H]3CCC4=CC(=O)CC[C@]4(C)[C@H]3CC[C@]12C`, for which the log(RBA) came out at 0.7 in assay [2], 0.778 in assay [1], 0.6 in the assay filed under Cavia porcellus and 1 in assay [3].
The compound `C#C[C@]1(O)CC[C@H]2[C@@H]3CCC4=CC(=O)CCC4=C3C=C[C@@]21C` had a log(RBA) in assay [1] of 1.3.
Turning to `C#C[C@]1(O)CC[C@H]2[C@@H]3CCC4=CCCC[C@@H]4[C@H]3CC[C@@]21C`, the log(RBA) was 0.602 in assay [2], 1.11 in assay [1], -0.52 in the assay filed under Cavia porcellus and 0.7 in assay [3].
For `CC(=O)[C@H]1CC[C@H]2[C@@H]3CCC4=CC(=O)CC[C@]4(C)[C@H]3CC[C@]12C` the same measures were 2, 2, 2 and 2.
Turning to `C#C[C@]1(O)CC[C@H]2[C@@H]3CCC4=CC(=O)CC[C@@H]4[C@H]3CC[C@@]21CCC`, the log(RBA) in assay [1] was 1.54.
Consider `CC(=O)[C@H]1CC[C@H]2[C@@H]3CC[C@@H]4CC(=O)CC[C@]4(C)[C@H]3CC[C@]12C`, for which the log(RBA) in assay [2] worked out at 0.6; in assay [1], 1.08; in the assay filed under Cavia porcellus, 0.7; in assay [3], 1.08.
Regarding `C#C[C@]1(OC(C)=O)CC[C@H]2[C@@H]3CCC4=CC(=O)CC[C@@H]4[C@H]3CC[C@@]21C`, the log(RBA) worked out at 1.04 in assay [2], 2.05 in assay [1], 0.78 in the assay filed under Cavia porcellus and 1.32 in assay [3].
Regarding `CC(=O)[C@H]1CC[C@H]2[C@@H]3CC=C4C[C@@H](O)CC[C@]4(C)[C@H]3CC[C@]12C`, the log(RBA) in assay [1] was -0.301; in the assay filed under Cavia porcellus, -0.52; in assay [3], -0.69.
For `C#C[C@]1(O)CC[C@H]2[C@@H]3CCC4=CC(=O)CCC4=C3C=C[C@@]21CCC`, in assay [1], the log(RBA) amounted to 0.7.
Regarding `C[C@]12CC[C@H]3[C@@H](CCC4=CC(=O)CC[C@@]43C)[C@@H]1CC[C@@H]2O`, the log(RBA) in assay [2] is 0; in assay [1] it was -0.22; in the assay filed under Cavia porcellus, 0.
